Target: DLK (Homo sapiens (Human), UniProt Q12852)
Assay: DLK TR-FRET Inhibition Assay
Type: biochemical
Settings: N-terminally GST-tagged DLK (catalytic domain amino acid 1-520), MKK4 K131M substrate, 30 μM ATP; read-out: DLK HTRF Ki
Method: DLK kinase reactions (20 μL) containing 5 nM N-terminally GST-tagged DLK (catalytic domain amino acid 1-520) (Carna Bioscience), 40 nM N-terminally HIS tagged MKK4 K131M substrate, and 30 μM ATP in kinase reaction buffer (50 mM HEPES, pH 7.5, 0.01% Triton X-100, 0.01% Bovine γ-Globulins, 2 mM DTT, 10 mM MgCl2 and 1 mM EGTA), and testing compound 1:3 serial diluted starting at 20 uM were incubated at ambient temperature for 60 minutes in 384 well OptiPlate (Perkin Elmer). To quench kinase reactions and detect phosphorylated MKK4, 15 μL of TR-FRET antibody mixture containing 2 nM anti-phosphorylated MKK4 labeled with Europium cryptate (Cisbio) and 23 nM anti-HIS labeled with D2 (Cisbio) in detection buffer (25 mM Tris pH 7.5, 100 mM NaCl, 100 mM EDTA, 0.01% Tween-20, and 200 mM KF) was added to the reaction mixture. The detection mixture was incubated for 3 hours at ambient temperature and the TR-FRET was detected with an EnVision multilabel plate reader (Perkin-Elmer) using the LANCE/DELFIA Dual Enh label from Perkin-Elmer (excitation filter: UV2 (TRF) 320 and emission filters: APC 665 and Europium 615).

DLK, sequence (Q12852 1-520): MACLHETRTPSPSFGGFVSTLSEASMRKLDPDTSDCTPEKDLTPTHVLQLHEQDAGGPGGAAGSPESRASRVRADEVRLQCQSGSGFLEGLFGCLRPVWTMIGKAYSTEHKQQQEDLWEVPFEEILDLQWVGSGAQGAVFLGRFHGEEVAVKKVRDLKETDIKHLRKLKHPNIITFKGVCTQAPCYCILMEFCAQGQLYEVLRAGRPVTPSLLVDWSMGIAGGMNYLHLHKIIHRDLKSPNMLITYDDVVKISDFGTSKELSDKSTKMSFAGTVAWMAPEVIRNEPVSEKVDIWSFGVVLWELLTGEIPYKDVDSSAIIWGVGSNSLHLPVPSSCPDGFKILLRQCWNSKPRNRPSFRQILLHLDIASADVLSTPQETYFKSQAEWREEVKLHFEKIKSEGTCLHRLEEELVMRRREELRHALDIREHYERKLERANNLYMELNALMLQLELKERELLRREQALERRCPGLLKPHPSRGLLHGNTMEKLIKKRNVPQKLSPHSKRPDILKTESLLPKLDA

SMILES	Ki
COc1cc(-c2nc(N3CC(F)(F)C3)c3nc4n(c3n2)CCOC4(C)C)cnc1N [Example 65, 5-(4-(3,3-difluoroazetidin-1-yl)-6,6-dimethyl-8,9-dihydro-6H-[1,4]oxazino[4,3-e]purin-2-yl)-3-methoxypyridin-2-amine]	860 nM
CCOc1cc(-c2nc(N3CC(F)(F)C3)c3nc4n(c3n2)CCOC4(C)C)cnc1N [Example 69]	289 nM
Cc1cc(-c2nc(N3CC4CC3C4)c3nc4n(c3n2)CCOC4(C)C)cnc1N [Example 48, 5-(4-(2-azabicyclo[2.1.1]hexan-2-yl)-6,6-dimethyl-8,9-dihydro-6H-[1,4]oxazino[4,3-e]purin-2-yl)-3-methylpyridin-2-amine]	992 nM
CC1(C)OCCn2c1nc1c(N3CC4CCOC4C3)nc(-c3cnc(N)nc3)nc12 (centres unmarked) [Example 14, 5-[1-(Hexahydro-furo[2,3-c]pyrrol-5-yl)-8,8-dimethyl-5,6-dihydro-8H-7-oxa-2,4,4b,9-tetraaza-fluoren-3-yl]-pyrimidin-2-ylamine]	990 nM
CC1(C)OCCn2c1nc1c(N3CC4(CCC4)C3)nc(-c3cnc(N)nc3)nc12 [Example 52, 5-[1-(2-Aza-spiro[3.3]hept-2-yl)-8,8-dimethyl-5,6-dihydro-8H-7-oxa-2,4,4b,9-tetraaza-fluoren-3-yl]-pyrimidin-2-ylamine]	515 nM
CC1(C)OCCn2c1nc1c(N3CC4CCC3C4)nc(-c3cnc4ccnn4c3)nc12 (centres unmarked) [Example 37, 1-(2-Aza-bicyclo[2.2.1]hept-2-yl)-8,8-dimethyl-3-pyrazolo[1,5-a]pyrimidin-6-yl-5,6-dihydro-8H-7-oxa-2,4,4b,9-tetraaza-fluorene]	663 nM
CC1(C)OCCn2c1nc1c(N3C[C@@H]4CC(F)(F)C[C@@H]4C3)nc(-c3cnc(N)nc3)nc12 [Example 6]	727 nM
CC1(C)OCCn2c1nc1c(N3CC4CC(F)(F)C4C3)nc(-c3cnc(N)nc3)nc12 (centres unmarked) [Example 10, 5-[1-(6,6-Difluoro-3-aza-bicyclo[3.2.0]hept-3-yl)-8,8-dimethyl-5,6-dihydro-8H-7-oxa-2,4,4b,9-tetraaza-fluoren-3-yl]-pyrimidin-2-ylamine]	157 nM
CC1(C)OCCn2c1nc1c(N3CC4(COC4)C3)nc(-c3cnc(N)nc3)nc12 [Example 50, 5-[8,8-Dimethyl-1-(2-oxa-6-aza-spiro[3.3]hept-6-yl)-5,6-dihydro-8H-7-oxa-2,4,4b,9-tetraaza-fluoren-3-yl]-pyrimidin-2-ylamine]	490 nM
C[C@@H]1CCCN1c1nc(-c2cnc(N)nc2)nc2c1nc1n2CCOC1(C)C [Example 26, 5-[8,8-Dimethyl-1-((R)-2-methyl-pyrrolidin-1-yl)-5,6-dihydro-8H-7-oxa-2,4,4b,9-tetraaza-fluoren-3-yl]-pyrimidin-2-ylamine]	210 nM
CC1(C)OCCn2c1nc1c(N3CC4CC3C4)nc(-c3cnc(N)c(OC(F)F)c3)nc12 [Example 43, 5-[1-(2-Aza-bicyclo[2.1.1]hex-2-yl)-8,8-dimethyl-5,6-dihydro-8H-7-oxa-2,4,4b,9-tetraaza-fluoren-3-yl]-3-difluoromethoxy-pyridin-2-ylamine]	41.8 nM
CC1(C)OCCn2c1nc1c(N3CCC4(COC4)C3)nc(-c3cnc4[nH]cc(C#N)c4c3)nc12 [Example 42, 5-[8,8-Dimethyl-1-(2-oxa-6-aza-spiro[3.4]oct-6-yl)-5,6-dihydro-8H-7-oxa-2,4,4b,9-tetraaza-fluoren-3-yl]-1H-pyrrolo[2,3-b]pyridin-3-carbonitrile]	4.97 nM
C[C@H]1CCCN1c1nc(-c2cnc(N)nc2)nc2c1nc1n2CCOC1(C)C [Example 53, 5-[8,8-Dimethyl-1-((S)-2-methyl-pyrrolidin-1-yl)-5,6-dihydro-8H-7-oxa-2,4,4b,9-tetraaza-fluoren-3-yl]-pyrimidin-2-ylamine]	479 nM
CC1(C)OCCn2c1nc1c(N3CCCC34CCOC4)nc(-c3cnc(N)nc3)nc12 (centres unmarked) [Example 16, 5-[8,8-Dimethyl-1-(7-oxa-1-aza-spiro[4.4]non-1-yl)-5,6-dihydro-8H-7-oxa-2,4,4b,9-tetraaza-fluoren-3-yl]-pyrimidin-2-ylamine]	320 nM
CC1(C)OCCn2c1nc1c(N3CC(F)C3)nc(-c3cnc(N)nc3)nc12 [Example 2, 5-[1-(3-Fluoro-azetidin-1-yl)-8,8-dimethyl-5,6-dihydro-8H-7-oxa-2,4,4b,9-tetraaza-fluoren-3-yl]-pyrimidin-2-ylamine]	391 nM
CC1(C)OCCn2c1nc1c(N3C[C@H]4CCC(F)(F)[C@H]4C3)nc(-c3cnc(N)nc3)nc12 (racemic) [Example 15, (±)-5-(4-((cis)-4,4-difluorohexahydrocyclopenta[c]-pyrrol-2(1H)-yl)-6,6-dimethyl-8,9-dihydro-6H-[1,4]oxazino[4,3-e]purin-2-yl)pyrimidin-2-amine]	360 nM
CCc1n[nH]c2ncc(-c3nc(N4CC5CC4C5)c4nc5n(c4n3)CCOC5(C)C)cc12 [Example 20, 1-(2-Aza-bicyclo[2.1.1]hex-2-yl)-3-(3-ethyl-1H-pyrazolo[3,4-b]pyridin-5-yl)-8,8-dimethyl-5,6-dihydro-8H-7-oxa-2,4,4b,9-tetraaza-fluorene]	161 nM

Results, then the compound that gave them:

Ki	SMILES
25.9 nM	Cc1c[nH]c2ncc(-c3nc(N4CCC(F)(F)C4)c4nc5n(c4n3)CCOC5(C)C)cc12 [Example 74]
571 nM	CC(C)Oc1nc(-c2cnc(N)nc2)nc2c1nc1n2CCOC1(C)C [Example 85]
385 nM	C[C@@]1(C2CC2)OCCn2c1nc1c(C3CC3)nc(-c3cnc(N)nc3)nc12 (single isomer, unassigned) [Example 106]
280 nM	CC1(C)OCCn2c1nc1c(N3CCC(F)(F)C3)nc(-c3cnc(N)c(F)c3)nc12 [Example 82]
447 nM	Nc1ncc(-c2nc(N3CC4CC3C4)c3nc4n(c3n2)CCOCC4)cn1 [Example 133, 5-(4-(2-azabicyclo[2.1.1]hexan-2-yl)-6,7,9,10-tetrahydro-[1,4]oxazepino[4,5-e]purin-2-yl)pyrimidin-2-amine]
120 nM	C[C@H]1Cn2c(nc3c(N4CC5CC4C5)nc(-c4cnc(N)nc4)nc32)[C@@H](C)O1 [Example 151]
225 nM	CC1(C(F)(F)F)OCCn2c1nc1c(N3CC4CC3C4)nc(-c3cnc(N)nc3)nc12 (centres unmarked) [Example 100, 5-(4-(2-azabicyclo[2.1.1]hexan-2-yl)-6-methyl-6-(trifluoromethyl)-8,9-dihydro-6H-[1,4]oxazino[4,3-e]purin-2-yl)pyrimidin-2-amine]
443 nM	CCC(C)Oc1cc(-c2nc(N3CCC(F)(F)C3)c3nc4n(c3n2)CCOC4(C)C)cnc1N (centres unmarked) [Example 80]
5.48 nM	Cc1c[nH]c2ncc(-c3nc(C4CC4)c4nc5n(c4n3)CCOC5(C)C)cc12 [Example 121]
476 nM	CC1(c2nc(-c3cnc(N)nc3)nc3c2nc2n3CCOC2(C)C)CC1 [Example 95, 5-(6,6-dimethyl-4-(1-methylcyclopropyl)-8,9-dihydro-6H-[1,4]oxazino[4,3-e]purin-2-yl)pyrimidin-2-amine]
521 nM	Cn1cc(-c2nc(-c3cnc(N)nc3)nc3c2nc2n3CCOC2(C)C)cn1 [Example 113, 5-(6,6-dimethyl-4-(1-methyl-1H-pyrazol-4-yl)-8,9-dihydro-6H-[1,4]oxazino[4,3-e]purin-2-yl)pyrimidin-2-amine]
1000 nM	CC1(C)OCCn2c1nc1c(C3(C#N)CCC3)nc(-c3cnc(N)nc3)nc12 [Example 103, 1-(2-(2-aminopyrimidin-5-yl)-6,6-dimethyl-8,9-dihydro-6H-[1,4]oxazino[4,3-e]purin-4-yl)cyclobutanecarbonitrile]
272 nM	CC1(C)OCCn2c1nc1c(N3CCC(F)(F)C3)nc(-c3cnc(N)c(Cl)c3)nc12 [Example 81]
210 nM	CC1(C)OCCCn2c1nc1c(N3CCCC3)nc(-c3cnc(N)nc3)nc12 [Example 134, 5-(6,6-dimethyl-4-(pyrrolidin-1-yl)-6,8,9,10-tetrahydro-[1,4]oxazepino[4,3-e]purin-2-yl)pyrimidin-2-amine]
330 nM	CC1(C)OCCn2c1nc1c(OC3CCC3)nc(-c3cnc(N)nc3)nc12 [Example 88]
216 nM	CC1(C)OCCn2c1nc1c(N3CC4CC3C[C@H]4F)nc(-c3cnc(N)nc3)nc12 (single isomer, unassigned) [Example 142]
551 nM	CC1(C)OCCn2c1nc1c(OC3CC4CC4C3)nc(-c3cnc(N)nc3)nc12 (centres unmarked) [Example 89]
102 nM	C[C@@H]1COC(C)(C)c2nc3c(C4CC4)nc(-c4cnc(N)nc4)nc3n21 (single isomer, unassigned) [Example 101]
56.9 nM	CC1(C)OCCn2c1nc1c(C3CC3)nc(-c3cnc(N)c(OC(F)F)c3)cc12 [Example 148]
588 nM	CC1(C)OCCn2c1nc1c(N3CCC(F)(F)C3)nc(-c3cnc(N)c(OCC4CC4)c3)nc12 [Example 77]
264 nM	CC1(C)OCCn2c1nc1c(C3CC3)nc(-c3cnc(N)c(C#N)c3)nc12 [Example 126, 2-amino-5-(4-cyclopropyl-6,6-dimethyl-8,9-dihydro-6H-[1,4]oxazino[4,3-e]purin-2-yl)nicotinonitrile]
866 nM	Nc1ncc(-c2nc(N3CC4CC3C4)c3nc4n(c3n2)CCO[C@@H]4C(F)(F)F)cn1 (single isomer, unassigned) [Example 99]
359 nM	CC1(C)OCCn2c1nc1c(C3CC3)nc(-c3cnc(N)nc3)cc12 [Example 120]
0.39 nM	CCN(c1nc(-c2cnc(N)nc2)nc2c1nc1n2CCOC1(C)C)C1CC1 [Example 117]
